Where no end group is shown, it is not given here.
Legend:
[1] = biological target: Cldn-4 deletion mutant proteins fused to GST (Mus musculus, UniProt O35054); format: binding
[2] = system: Cldn-4 deletion mutant proteins fused to GST; format: binding, Mouse

In the case of SLDAGQYVLVMKANSSYSGNYPYSILFQKF [Cpe30], the “binding to GST-Ecl2 without any TM domain” value [1] was “detectable binding activity, albeit at much lower affinity”, the “binding to TM3.Ecl2.TM4” value [1] was “consistent binding” and the “sensorgram behaviour with full length Cldn-4 fusion” value [1] was “slight decrease in the late stages of association”. The “binding to GST cldn-4 fusion proteins” value [2] was “high affinity specific binding”.

Reference: US8258257B2 (The Regents of the University of California, priority 2008, dated 2012)
